The values below come from PMC6268433, “New Sorafenib Derivatives: Synthesis, Antiproliferative Activity Against Tumour Cell Lines and Antimetabolic Evaluation” (Molecules, 2012).

Assay [1] relates to DNA synthesis in CEM cells. In words: Antimetabolic activity: [CH3-3H]dThd incorporation (DNA synthesis) in CEM cell cultures. The format is cell-based. As to conditions: Homo sapiens, CCRF-CEM, ~20 h, TCA-insoluble material. The source says:
(§1) A variety of compounds (2a, 3a, 4a with a cycloalkyl substituent directly attached to nitrogen atom, 2c, 3c, 4c with a cycloalkyl bound to nitrogen through a short spacer and 2e, 3e, 4e with an aromatic substituent) have been investigated on their inhibitory activity against DNA, RNA and protein synthesis in CEM cell cultures. The compounds were equally inhibitory to dThd (DNA synthesis), Urd (RNA synthesis) and Leu (protein synthesis) incorporation into TCA-insoluble cell material. The 2 series of compounds were least inhibitory whereas the 4 series were most inhibitory (IC50 in the lower micromolar range). Their antimetabolic IC50 values closely corresponded to their antiproliferative IC50 values. They also behaved as sorafenib in terms of antimetabolic potential (Table 3).
(§2) The procedures have been modified from previously described methods. Human CEM cells were seeded in 96-well microtiter plates at 10 × 10^4 cells/200 µL-well in the presence of serial dilutions of the tested compounds. Then, 0.25 µCi of [CH3-^3H]dThd (radiospecificity: 52 Ci/mmol) or 1 µCi of [5-^3H]Urd (radiospecificity: 26 Ci/mmol) or [4,5-^3H]Leu (radiospecificity: 160 Ci/mmol) were added and the drug-exposed tumour cell cultures further incubated at 37 °C for ~20 h. Then the content of each well was transfered to glass fiber discs (Wattman, GE Healthcare, Maidstone, UK), mounted on a manifold (Millipore, Billerica, MA, USA) and subsequently washed with PBS (to remove the radiolabel material that has not been incorporated in the cellular macromolecules), 10% and 5% trichoroacetic acid (TCA) (to precipitate DNA, RNA and proteins) and ethanol. Then, the radioactivity (TCA precipitate) associated with each disc was determined in a liquid scintillation counter (Packard, Palo Alto, CA, USA).

For another assay, the system named is 23 cell lines. Set-up: method as in PMID 20672370. As to conditions: median over 23 cell lines; cited from earlier work.
For assay [2], the system named is HCT 116 (colon carcinoma). In words: Cytostatic activity, MTT assay. The format is cell-based, human. As to conditions: 72 h, read-out: Tumour cell growth/IC50 HCT 116. How it is done:
(§3) The experiments were carried out on six human tumour and one murine cell lines, which are derived from five solid tumour types and two (one murine and one human) suspension tumour cell lines. The following cell lines were used: HCT 116 (colon carcinoma), SW 620 (colon carcinoma), MCF-7 (breast carcinoma), H 460 (lung carcinoma), L1210 (murine leukemia), CEM (human lymphoma) and HeLa (cervix carcinoma). […] Compounds 3d and 3e with a benzene ring in the amide moiety, exerted a somewhat stronger (but still rather poor) cytostatic effect (IC50 ≈ 20-90 µM). […] The compounds were also equally cytostatic against primary human embryonic lung (HEL) fibroblast cells (Table 2). The obtained data clearly point to the obligatory presence of the [4-chloro-3-(trifluoromethyl)phenyl]carbamoyl group being crucial for high potency. Also, the 4a–e series of compounds are far more lipophilic than the 2 and 3 series of compounds, which may be related to their increased cytostatic potential.
(§4) HCT 116, SW 620, MCF-7, and H 460 cells were cultured as monolayers and maintained in Dulbecco’s modified Eagle medium (DMEM), supplemented with 10% fetal bovine serum (FBS), 2 mmol·L^–1 L-glutamine, 100 U·mL^–1 penicillin and 100 μg·mL^–1 streptomycin in a humidified atmosphere with 5% CO2 at 37 °C. The growth inhibition activity was assessed as described previously, according to the slightly modified procedure of the National Cancer Institute, Developmental Therapeutics Program. Briefly, the cells were seeded onto standard 96-well microtiter plates on day 0. The cell concentrations were adjusted according to the cell population doubling time (PDT): 3000 cells/well for HCT116 and SW 620 cell lines (PDT = 20–24 h) and 4,000 cells/well for MCF-7 cell lines (PDT = 33 h). Tested agents were then added in five consecutive 10-fold dilutions (10^–8 to 10^–4 mol·L^–1) and incubated for further 72 h. Working dilutions were freshly prepared on the day of testing. The solvent (DMSO) was also tested for eventual inhibitory activity by adjusting its concentration to be the same as in working concentrations (maximal concentration of DMSO was 0.25%). After 72 h of incubation, the cell growth rate was evaluated by performing the MTT assay (Promega) which detects dehydrogenase activity in viable cells. The absorbency (OD, optical density) was measured on a microplate reader at 570 nm. Each test point was performed in quadruplicate in at least three individual experiments. The results are expressed as IC50, which is the concentration necessary for 50% of inhibition. […] Each result is a mean value from three separate experiments.
(Tetrazolium dyes change colour on reduction, which living cells bring about.)

Another assay deals with SW 620 (colon carcinoma). Description: Cytostatic activity, MTT assay. The format is cell-based, human. The conditions noted are these: 72 h, read-out: Tumour cell growth/IC50 SW 620. The protocol:
as §3, §4

The next assay concerns MCF-7 (breast carcinoma). Description: Cytostatic activity, MTT assay. The format is cell-based, human. As to conditions: 72 h, read-out: Tumour cell growth/IC50 MCF-7. How it is done:
as §3, §4

The subject of the next assay is H 460 (lung carcinoma). In words: Cytostatic activity, MTT assay. As to conditions: 72 h, read-out: Tumour cell growth/IC50 H 460. The format is cell-based, human. The protocol: as §3, §4
Assay [3] deals with RNA synthesis in CEM cells. In words: Antimetabolic activity: [5-3H]Urd incorporation (RNA synthesis) in CEM cell cultures. The class given is cell-based. As to conditions: Homo sapiens, CCRF-CEM, ~20 h, TCA-insoluble material.
From the text: as §1, §2

In a further assay the test system is HeLa (cervix carcinoma). Description: Cytostatic activity, Coulter counter. The class given is cell-based, human. As to conditions: 72 h, cell number by Coulter counter; read-out: Tumour cell growth/IC50 HeLa. The protocol: as §3
(§5) The cytostatic activity of the tested compounds against murine leukemia L1210, human cervix carcinoma HeLa, human embrionic lung (HEL) and T-lymphocyte CEM cells was determined with cells grown in suspension (L1210, CEM) or monolayers (HeLa, HEL) in 200 µL-wells of 96-well microtiter plates (initial cell number: 5–7.5 × 10^4 cells/well). After 48 (L1210) or 72 (CEM, HeLa, HEL) h, the tumour cell number was determined by the use of a Coulter counter.

Assay [4] concerns primary human embryonic lung (HEL) fibroblast cells. Description: Cytostatic activity, Coulter counter. As to conditions: 72 h, cell number by Coulter counter; primary fibroblasts. The format is cell-based. The protocol:
as §3, §5

The subject of another assay is CEM (human lymphoma). Description: Cytostatic activity, Coulter counter. The format is cell-based. The conditions noted are these: 72 h, cell number by Coulter counter; read-out: Tumour cell growth/IC50 CEM. How it is done:
as §3, §5

In a further assay the test system is L1210 (murine leukemia). Description: Cytostatic activity, Coulter counter. As to conditions: 48 h, cell number by Coulter counter; read-out: Tumour cell growth/IC50 L1210. The class given is cell-based. How it is done: as §3, §5
The test system of assay [5] is protein synthesis in CEM cells. In words: Antimetabolic activity: [4,5-3H]Leu incorporation (protein synthesis) in CEM cell cultures. The format is cell-based. The conditions noted are these: Homo sapiens, CCRF-CEM, ~20 h, TCA-insoluble material.
From the text: as §1, §2

As to `CNC(=O)c1cc(Oc2ccc(NC(=O)Nc3ccc(Cl)c(C(F)(F)F)c3)cc2)ccn1` [Sorafenib, 4-[4-[[4-chloro-3-(trifluoromethyl)phenyl]carbamoylamino]phenoxy]-N-methylpyridine-2-carboxamide], the IC50 in assay [1] was 8.6 ± 1.1 µM; in the assay on 23 cell lines, 4.3 µM; in assay [2], 3 ± 0.8 µM; in the assay on SW 620 (colon carcinoma), 6 ± 1 µM; with MCF-7 (breast carcinoma), 3 ± 0.7 µM; in the assay with H 460 (lung carcinoma), 3 ± 0.8 µM. In addition, the IC50 was found to be 7.1 ± 0.2 µM in [3]; 3.7 ± 0.6 µM with HeLa (cervix carcinoma); 7.5 ± 0.7 µM in assay [4]; 3.4 ± 0.5 µM in the assay with CEM (human lymphoma); 4.1 µM in the assay with L1210 (murine leukemia); 12 ± 7 µM in assay [5].
